The record followed here is patent publication US8785489B2, “Heteroaryl substituted indole compounds useful as MMP-13 inhibitors” (Boehringer Ingelheim International GmbH, priority 2008, dated 2014).

Each structure is given as a SMILES string.

In the test the target is MMP13 (Homo sapiens (Human), UniProt P45452). The experiment in a line: EnzoLyte 520 Generic MMP Assay Kit, 5-FAM/QXL 520 FRET peptide substrate. Type of test: biochemical. The text has this: The EnzoLyte™ 520 Generic MMP Assay Kit (AnaSpec Inc.) can detect the activity of several MMPs including MMP-1, 2, 3, 7, 8, 9, 13, and 14. This kit uses a 5-FAM/QXL™ 520 fluorescence resonance energy transfer (FRET) peptide as an MMP substrate. In the intact FRET peptide, the fluorescence of 5-FAM is quenched by QXL™ 520. Upon cleavage into two separate fragments by MMPs, the fluorescence of 5-FAM is recovered, and can be monitored at excitation/emission wavelengths=490 nm/520 nm. The assays are performed in a convenient 96-well or 384-well microplate format.
By IC50 is commonly meant the midpoint of a concentration-inhibition curve. A higher IC50 goes with a need for much substance. `Cc1noc(-c2cc3cc(-c4nc(C(=O)NCc5ccno5)[nH]c4C)ccc3[nH]2)n1` [N-(isoxazol-5-ylmethyl)-5-methyl-4-[2-(3-methyl-1,2,4-oxadiazol-5-yl)-1H-indol-5-yl]-1H-imidazole-2-carboxamide] gave an IC50 of 0.7 nM.

Regarding `CCOC(=O)c1cc2cc(-c3ccnc(C(=O)NCc4ccncc4)c3)ccc2[nH]1` [5-{2-[(Pyridin-4-ylmethyl)-carbamoyl]-pyridin-4-yl}-1H-indole-2-carboxylic acid ethyl ester], the IC50 worked out at 94 nM. This IC50 lies about 130-fold higher than the previous one.

`Cc1noc(-c2cc3cc(-c4nc(C(=O)NCc5cc(C)on5)[nH]c4C)ccc3[nH]2)n1` [5-methyl-N-[(5-methylisoxazol-3-yl)methyl]-4-[2-(3-methyl-1,2,4-oxadiazol-5-yl)-1H-indol-5-yl]-1H-imidazole-2-carboxamide] had a concentration for half-maximal inhibition (IC50) of 0.9 nM.

In the case of `Cc1noc(-c2cc3cc(-c4nc(C(=O)NC5CCOCC5)[nH]c4C)ccc3[nH]2)n1`, the half-maximal inhibitory concentration (IC50) came out at 106 nM.

`Cc1cc(-c2cc3cc(-c4cc(C(=O)NCc5ccc(C(=O)O)cc5)nn4C)ccc3[nH]2)ccc1F` registered an IC50 of 30 nM.

Take `CCOC(=O)c1cc2cc(-c3ccnc(C(=O)NCc4ccc(C(=O)O)cc4)c3)ccc2[nH]1`: the IC50 came to 0.7 nM.

Compound `Cc1noc(-c2cc3cc(-c4nc(C(=O)NCc5ccc(F)cc5)[nH]c4C)ccc3[nH]2)n1` registered an IC50 of 6 nM.

For the compound `Cc1noc(-c2cc3cc(-c4cc(C(=O)NCc5nccs5)nn4C)ccc3[nH]2)n1` [1-methyl-5-[2-(3-methyl-1,2,4-oxadiazol-5-yl)-1H-indol-5-yl]-N-(1,3-thiazol-2-ylmethyl)-1H-pyrazole-3-carboxamide], the midpoint of inhibition, the IC50, lay at 73 nM. This IC50 lies about 12-fold higher than the previous one.

Take `Cc1noc(-c2cc3cc(-c4nc(C(=O)NCc5cnn(C)c5)[nH]c4C)ccc3[nH]2)n1` [5-methyl-4-[2-(3-methyl-1,2,4-oxadiazol-5-yl)-1H-indol-5-yl]-N-[(1-methyl-1H-pyrazol-4-yl)methyl]-1H-imidazole-2-carboxamide]: the IC50 turned out to be 0.4 nM.

Compound `Cc1noc(-c2cc3cc(-c4nc(C(=O)NCc5nnc[nH]5)[nH]c4C)ccc3[nH]2)n1` displayed a concentration for half-maximal inhibition (IC50) of 6 nM.

`CCOC(=O)c1cc2cc(-c3nc(C(=O)NCc4ccncc4)[nH]c3C)cnc2[nH]1` came in with an IC50 of 49 nM. This IC50 is about 8.2-fold higher than that of the compound before.

For the compound `Cc1noc(-c2cc3cc(-c4nc(C(=O)NCc5ccc(C(=O)O)cc5)[nH]c4C)ccc3[nH]2)n1`, the midpoint of inhibition, the IC50, lay at 0.2 nM.

Compound `COC(=O)c1cc(-c2ccc3[nH]c(-c4nc(C)no4)cc3c2)n(C)n1` had an IC50 of 190 nM.

Regarding `Cc1noc(-c2cc3cc(-c4nc(C(=O)N5CCCCC5)[nH]c4C)ccc3[nH]2)n1`, half-maximal inhibition (IC50) required 64 nM.

The compound `CCOC(=O)c1cc2cc(-c3cc(C(=O)NCc4ccncc4)nn3C)ccc2[nH]1` came in with a half-inhibitory concentration (IC50) of 97 nM.

Take `Cc1cc(Cn2cc(-c3ccnc(C(=O)NCc4ccc(C(=O)O)cc4)c3)cn2)ccc1F`: the concentration for half-maximal inhibition (IC50) came out at 130 nM.

For the compound `CCOC(=O)c1cc2cc(-c3nc(C(=O)NCc4ccncc4)[nH]c3C)ncc2[nH]1`, the 50% inhibitory concentration (IC50) is 7 nM.

The compound `Cc1noc(-c2cc3cc(-c4nc(C(=O)NCc5ccnc(C#N)c5)[nH]c4C)ccc3[nH]2)n1` [N-[(2-cyanopyridin-4-yl)methyl]-5-methyl-4-[2-(3-methyl-1,2,4-oxadiazol-5-yl)-1H-indol-5-yl]-1H-imidazole-2-carboxamide] returned a concentration for half-maximal inhibition (IC50) of 0.95 nM.

With `Cc1noc(-c2cc3cc(-c4cc(C(=O)NCc5cnn(C)c5)nn4C)ccc3[nH]2)n1` [1-methyl-5-[2-(3-methyl-1,2,4-oxadiazol-5-yl)-1H-indol-5-yl]-N-[(1-methyl-1H-pyrazol-4-yl)methyl]-1H-pyrazole-3-carboxamide], 10 nM corresponded to half-maximal inhibition (IC50).

For the compound `Cc1noc(-c2cc3cc(-c4nc(C(=O)NC[C@@H]5CCCO5)[nH]c4C)ccc3[nH]2)n1` [5-methyl-4-[2-(3-methyl-1,2,4-oxadiazol-5-yl)-1H-indol-5-yl]-N-[(2S)-tetrahydrofuran-2-ylmethyl]-1H-imidazole-2-carboxamide], the half-maximal inhibitory concentration (IC50) came out at 4 nM.

In turn, `Cc1cc(-c2cc3cc(-c4cc(C(=O)NCc5ccc(C(=O)O)cc5)nn4C)ccc3[nH]2)cc(F)n1` came in with an IC50 of 53 nM.

The compound `Cc1noc(-c2cc3cc(-c4nc(C(=O)NCC5CC5)[nH]c4C)ccc3[nH]2)n1` [N-(cyclopropylmethyl)-5-methyl-4-[2-(3-methyl-1,2,4-oxadiazol-5-yl)-1H-indol-5-yl]-1H-imidazole-2-carboxamide] had an IC50 of 8 nM.

`Cc1noc(-c2cc3cc(-c4cc(C(=O)NCc5cncs5)nn4C)ccc3[nH]2)n1` [1-methyl-5-[2-(3-methyl-1,2,4-oxadiazol-5-yl)-1H-indol-5-yl]-N-(1,3-thiazol-5-ylmethyl)-1H-pyrazole-3-carboxamide] showed an IC50 of 10 nM.

As to `Cc1noc(-c2cc3cc(-c4cc(C(=O)NCc5cccs5)nn4C)ccc3[nH]2)n1`, half-maximal inhibition (IC50) was put at 44 nM. Against the preceding compound, the IC50 is about 4.4-fold higher.

On to `Cc1noc(-c2cc3cc(-c4nc(C(=O)NCc5nnc6n5CCC6)[nH]c4C)ccc3[nH]2)n1`, for which the IC50 came out at 4 nM.

`Cc1noc(-c2cc3cc(-c4nc(C(=O)NC5CC5)[nH]c4C)ccc3[nH]2)n1` [N-cyclopropyl-5-methyl-4-[2-(3-methyl-1,2,4-oxadiazol-5-yl)-1H-indol-5-yl]-1H-imidazole-2-carboxamide] returned an IC50 of 26 nM.

In turn, `CCOC(=O)c1cc2cc(-c3cc(C(=O)NCc4ccc(=O)[nH]c4)nn3C)ccc2[nH]1` gave a concentration for half-maximal inhibition (IC50) of 125 nM.

With `Cc1noc(-c2cc3cc(-c4nc(C(=O)NCc5ccc(C#N)cc5)[nH]c4C)ccc3[nH]2)n1`, the IC50 was 2 nM. This IC50 is about 62-fold lower than that of the compound before.

`Cn1cc(-c2cc3cc(-c4cc(C(=O)NCc5ccc(C(=O)O)cc5)nn4C)ccc3[nH]2)cn1` showed an IC50 of 1.5 nM.

Compound `Cc1noc(-c2cc3cc(-c4cc(C(=O)NCc5ccno5)nn4C)ccc3[nH]2)n1` [N-(isoxazol-5-ylmethyl)-1-methyl-5-[2-(3-methyl-1,2,4-oxadiazol-5-yl)-1H-indol-5-yl]-1H-pyrazole-3-carboxamide] had an IC50 of 19 nM.

On to `Cn1nc(C(=O)NCc2ccc(C(=O)O)cc2)cc1-c1ccc2[nH]c(-c3ncccn3)cc2c1`, for which the IC50 amounted to 1.6 nM.

In the case of `Cc1noc(-c2cc3cc(-c4nc(C(=O)NCC5CCCCO5)[nH]c4C)ccc3[nH]2)n1` (stereo not shown), the half-maximal inhibitory concentration (IC50) stood at 5 nM.

Regarding `Cc1noc(-c2cc3cc(-c4nc(C(=O)NCc5ccccn5)[nH]c4C)ccc3[nH]2)n1`, inhibition was half-maximal at 3 nM (IC50).

`Cc1noc(-c2cc3cc(-c4cc(C(=O)NCc5ccc(C(=O)O)cc5)ncc4C)ccc3[nH]2)n1` gave an IC50 of 0.2 nM. Against the preceding compound, the IC50 is about 15-fold lower.

`CCOC(=O)c1cc2cc(-c3cc(C(=O)NCc4ccc(CC(=O)OC)cc4)nn3C)ccc2[nH]1` had an IC50 of 51 nM.

Turning to `Cc1noc(-c2cc3cc(-c4nc(C(=O)NCC5COCCO5)[nH]c4C)ccc3[nH]2)n1` (stereo not shown), the IC50 came to 1.9 nM.

The compound `Cc1noc(-c2cc3cc(-c4nc(C(=O)NCc5cccnc5)[nH]c4C)ccc3[nH]2)n1` returned a 50% inhibitory concentration (IC50) of 0.6 nM.

Take `Cc1cc(Cn2cc(-c3nc(C(=O)NCc4ccc(C(=O)O)cc4)[nH]c3C)cn2)ccc1F`: the IC50 was found to be 88 nM.

In turn, `Cc1noc(-c2cc3cc(-c4nc(C(=O)NCc5ccc(=O)[nH]c5)[nH]c4C)ccc3[nH]2)n1` displayed an IC50 of 0.2 nM.

Take `Cc1noc(-c2cc3cc(-c4cc(C(=O)NCc5cscn5)nn4C)ccc3[nH]2)n1` [1-methyl-5-[2-(3-methyl-1,2,4-oxadiazol-5-yl)-1H-indol-5-yl]-N-(1,3-thiazol-4-ylmethyl)-1H-pyrazole-3-carboxamide]: it took 94 nM to reach half-maximal inhibition (IC50). This IC50 lies about 470-fold higher than the previous one.
